Columns and labels:
Format in all cases: binding
[1] = target: T1, Siglec-9 V-set domain (Siglec-9d1) (Homo sapiens, UniProt Q9Y336, C36S); assay: Isothermal titration calorimetry
[2] = target: T1, Siglec-9 V-set domain (Siglec-9d1); assay: 1H-15N HSQC NMR titration
mVENUS = assay: STD-NMR control experiment with mVENUS

T1 sequence (Q9Y336 18-144 C36S): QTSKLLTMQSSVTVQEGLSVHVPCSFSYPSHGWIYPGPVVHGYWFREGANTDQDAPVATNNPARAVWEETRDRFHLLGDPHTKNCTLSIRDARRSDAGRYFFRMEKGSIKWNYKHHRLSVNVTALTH

ΔH ([1]; ITC, Siglec-9d1) [kcal/mol] | fold higher affinity for Siglec-9 than the glycan with unsubstituted Neu5Ac ([1]; comparison with the unsubstituted glycan) [fold] | fold higher affinity toward Siglec-9 than BTCNeu5Ac ([1]; from ITC KD values) | Kd [2] [µM] | STD NMR signals on binding to mVENUS (mVENUS) | Compound
-10.2 | > 20 | approximately 2 fold |  |  | 9N-[5-(2-methylthiazol-4-yl)thiophene sulfonamide]-Neu5Acα(2–6)Galβ(1–4)GlcNAc [^MTTSNeu5Ac]
 |  |  | 499 ± 74 | did not produce any STD NMR signals | CC(=O)N[C@H]1[C@H]([C@H](O)[C@H](O)CO)O[C@@](O[C@H]2[C@@H](O)[C@@H](CO)O[C@@H](O[C@@H]([C@H](O[C@@H]3O[C@@H](C)[C@@H](O)[C@@H](O)[C@@H]3O)[C@H](C=O)NC(C)=O)[C@H](O)CO)[C@@H]2O)(C(=O)O)C[C@@H]1O [sLeX, Neu5Ac(α2-3)Gal(β1-4)[Fuc(1-3)]GlcNAc]

Source: publication PMC10877568 (ACS Chemical Biology, 2024)
